One experiment has as its system HIV-1 NLAD8. Description: HIV inhibition assay in P4C5 HeLa cells (β-gal activity). The settings on record: CCR5-tropic virus. In kind it is cell-based.
The next experiment has as its system VSV-G pseudotyped virus. In kind it is cell-based, HIV (VSV).
A further experiment has as its system HIV-1 NL43. Put plainly: HIV inhibition assay in P4C5 HeLa cells (β-gal activity). In kind it is cell-based. The settings on record: CXCR4-tropic strain.
Experiment [1] has as its system hESCs. Put plainly: insulin replacement assay in hESCs. In kind it is cell-based, human. Conditions: SHEF4 and HESC3 hESCs, 24 hours of growth without INSULIN. Here is the method: For insulin replacement assays, SHEF4 or HESC3 hESCs were cultured in TSER-E5 (Stem Cell Technologies) supplemented with TGF-β (5 ng/ml, R&D Systems) and bFGF (100 ng/ml, Invitrogen) with and without INSULIN (10 ug/ml, SIGMA).

Another experiment addresses T1, ELA (Homo sapiens, UniProt P0DMC3).
T1 construct: ELA is an endogenous secreted peptide that is essential for the survival and self-renewal of hESCs; endogenous in cells; host or cells: hESCs (Shef4 / Shef4TetR5)
T1 sequence (P0DMC3 23-54): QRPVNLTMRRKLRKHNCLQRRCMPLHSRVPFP
Put plainly: extracellular neutralizing assay with affinity purified anti-ELA antibodies in hESC culture. The class given is cell-based. Conditions: peptide added with α N antibodies.

In experiment [2] the test system is hESCs. Put plainly: stress-induced apoptosis of hESCs by ActinomycinD. In kind it is cell-based, human. The settings on record: nanomolar concentrations of ActinomycinD. The protocol:
To induce apoptosis, hESCs were treated with the indicated doses of ActinomycinD (Sigma) or ionizing radiation followed by Aqueous One Cell Titer (Promega) or CASPASE GLO3/7 (Promega) assays 12 hours post-treatment.

In the next experiment the test system is PI3K/AKT pathway. Put plainly: signaling pathway assay in starved hESCs pulsed with peptide (SDS-PAGE, western). Conditions: 5 uM peptide after 2-hour starvation. In kind it is cell-based, human. Here is the method:
To assay the signaling pathway activated by ELA, hESCs were dissociated and plated in mTSER1 for 48 hours, followed by a 2-hour starvation in DMEM/F12. Synthetically produced ELA or ELA^RR>GG peptides, dialyzed against PBS to remove any residual synthesis buffers, were added at a final concentration of 5 uM (or as indicate(D) for the indicated period of time. Where applicable, PI3K inhibitors LY294002 (5 uM) and Wortmannin (1 uM) were added 30 minutes before pulsing with ELA peptides. Cells were lysed with PhosphoSafe™ (Millipore) for SDS-PAGE.

Experiment [3] concerns hESCs. Put plainly: xCELLigence real time growth assay, cell counts and colony size of hESCs. The class given is cell-based, human. Conditions: cell counts, colony size, real-time cell indices; peptide 2.5 uM (10 μg/ml). The protocol: Feeder-free hESCs were cultured in clumps in mTSER1 (Stem Cell Technologies) on Matrigel (BD 354277).
hESCs were dissociated into single cells using Accutase (Stem Cell Technologies) and plated in the presence of 10 μM Y-27632 (ROCK inhibitor) for 12 hours (Watanabe et al., 2007).
For xCELLigence real time growth assays, 4000 cells were plated per well of an E-plate (ACEA Biosciences) with media changes every 48 hours.
Recombinant ELA was added at 2.5 uM (or 10 μg/ml). Cell cycle studies were performed with Click-iT EDU staining kit (Invitrogen) and by performing a double thymidine block (2.5 mM thymidine; 16 hour block, 8 hour release, 16 hour block) followed by DAPI staining for DNA content at the indicated times following release.

In the case of `Cc1ccnc2c1NC(=O)c1cccnc1N2C1CC1` [Nevirapine, reference compound], the “inhibition of infection with HIV-1 NLAD8” value with HIV-1 NLAD8 is listed as “blocks all viruses tested”. The “inhibition of infection with VSV-G pseudotyped virus” value with VSV-G pseudotyped virus was “blocks all viruses tested”. For the same compound, the “inhibition of infection with HIV-1 NL43” value in the experiment on HIV-1 NL43 is recorded as “blocks all viruses tested”.
In the case of “ELA^RR>GG: doubly mutated ELA mutant peptide (R31G, R32G), non-signaling (QRPVNLTMGGKLRKHNCLQRRCMPLHSRVPFP)”, the “rescue in cell viability in the absence of INSULIN” value in the experiment with hESCs [1] was “exerted no effects”. For the same compound, the “competition of the neutralizing activity of the antibody by peptide” value in the experiment with ELA is recorded as “competed out”. Also, the “resistance or sensitivity to ActinomycinD” value in the experiment on hESCs [2] is “no protective effect”. In addition, in the experiment with PI3K/AKT pathway, the “phosphorylation of AKT at serine 473 and PRAS40 at threonine 246” value is “not observed”. In the experiment on hESCs [3], the “growth of hESCs relative to untreated cells” value is recorded as “without effect”.

The values are drawn from patent publication US9902761B2, “Polypeptides, nucleic acids and uses thereof” (AGENCY FOR SCIENCE, TECHNOLOGY AND RESEARCH, priority 2013, dated 2018).
